Consider one molecule from paper PMC12391994, “Synthesis of a fac-Tricarbonylrhenium(I) Complex with Pyrithione, Its Physicochemical Characterization, and Assessment of Biological Effects” (ACS Omega, 2025).

Where “and” joins values, the source holds several entries; their conditions need not be identical. Identical values can stand only once. Marks after values point to notes of the source that are not given here.

Data set [1] concerns the target T1, human serum albumin (HSA) (Homo sapiens, UniProt P02768).
T1 construct: purchased Sigma-Aldrich/Merck A8763
Nature of the data set: Membrane ultrafiltration with HSA. Format: binding. The conditions noted are these: 1:2 protein-to-complex ratio (25 μM HSA, 50 μM complex), pH 7.4. The protocol:
To characterize the binding strength of the complex to HSA, the UV–vis spectrum of the complex was recorded in the presence of different amounts of the protein (Figure ). The gradual spectral changes leveled off at about 0.5 equiv of the protein, indicating at least two binding sites. However, from these spectral changes, no formation constants could be calculated due to the overlapping processes.
Milli-pore, Amicon Ultra-0.5 membrane filters (10 kDa) were used to separate samples containing 25 μM HSA and 50 μM complex (1:2 biomolecule-to-complex ratio) into low and high molecular mass (LMM and HMM) fractions as described in our former work. UV–vis spectrophotometry was used to determine the concentration of the nonbound compounds in the LMM fractions by comparing to a reference sample without the protein.

For data set [2], the target named is T1, human serum albumin (HSA). Nature of the data set: Tryptophan (Trp214) fluorescence quenching assay with HSA. Particulars: 1 μM HSA. Format: binding. The method, then:
HSA contains only one tryptophan residue (Trp214), which is located in a hydrophobic pocket in subdomain IIA of the protein. When a compound binds to HSA, it can affect the local environment of Trp214, leading to a decrease in its fluorescence intensity.
Fluorescence measurements were carried out on a Fluoromax (Horiba Jobin Yvon, Longjumeau, France) spectrofluorometer using a 1 cm × 1 cm quartz cuvette. Samples contained 1 μM HSA and the complex concentration was varied between 0 and 18 μM. The measurements were carried out as titration. The excitation wavelength was 295 for the Trp214 quenching measurements, and the determined quenching constant for HSA–complex species (1:1) was obtained using the computer program HypSpec. Calculations always were based on data obtained from at least two independent measurements. Self-absorbance and inner filter effect had to be considered, and corrections were made as was described in our former works. ,

A further data set deals with HeLa cells. Kind of data set: MTT cytotoxicity assay, HeLa. It is filed as cell-based, human. Particulars: 72 h incubation. The method, then: (§1) Its cytotoxicity was determined in the human HeLa cervical cancer cell line, the drug-sensitive Colo205 and its resistant counterpart, the ABCB1 expressing Colo320 colon adenocarcinoma cancer cell lines, using the colorimetric 3-(4,5-dimethylthiazol-2-yl)-2,5-diphenyltetrazolium bromide (MTT) test. To investigate the selectivity toward cancer cells, the noncancerous fibroblast CCD-19Lu cell line was included.
(§2) The tested compound was dissolved in DMSO to prepare a 5 mM stock solution, which was diluted in complete culture medium, to study the effect of compounds on cell growth of human colonic adenocarcinoma cell lines. Doxorubicin was used as the positive control. The cells were treated with a trypsin-versene (EDTA) solution. Cells were adjusted to a density of 1 × 10^4 cells in 100 μL of the appropriate culture medium and were added to each well, with the exception of the medium control wells. Except for the semiadherent Colo205 and Colo320 cell lines, the other adherent cell lines were seeded 24 h prior to the assay. Then, stock solutions were diluted in the appropriate culture medium, and 2-fold serial dilutions of compounds were prepared in 100 μL of the medium, horizontally. […] Cell growth was determined by measuring the optical density (OD) at 540/630 nm with a Multiscan EX ELISA reader (Thermo Labsystems, Cheshire, WA). […]

Another data set relates to CCD-19Lu cells. Nature of the data set: MTT cytotoxicity assay, CCD-19Lu. Format: cell-based, human. Particulars: 72 h incubation, noncancerous fibroblast. The method, then: as §1, §2
For orientation: Tetrazolium assays rely on reduction of a dye to a coloured formazan, in cell work by metabolically active cells.

Data set [3] deals with T2, cathepsin B (endopeptidase activity) (Homo sapiens, UniProt P07858).
T2 construct: made in house; host or cells: E. coli
Nature of the data set: Determination of inhibition constants, cathepsin B endopeptidase activity. Format: biochemical. Particulars: substrate Z-RR-AMC. The protocol: (§3) Human recombinant cathepsin B was expressed in E. coli, recombinant cathepsin V was expressed in Pichia pastoris, and human recombinant cathepsin L was expressed in E. coli, as reported. − For the determination of cathepsin B endopeptidase and exopeptidase activities, 100 mM phosphate buffer (pH 6.0) and 60 mM acetate buffer (pH 5.0) were used, respectively, and for the determination of cathepsin V and L activities, 100 mM acetate buffer (pH 5.5) was used. All buffers contained 0.1% PEG 8000 (Sigma-Aldrich, St. Louis, MO), 5 mM cysteine, and 1.5 mM EDTA. Prior to the assay, the enzymes were activated in the assay buffer for 5 min at 37 °C.
(§4) Inhibition constants were calculated from the reaction velocities measured at three substrate concentrations (the substrate Z-Arg-Arg-AMC at concentrations of 60, 180, and 360 μM and the substrate Abz-Gly-Ile-Val-Arg-Ala-Lys(Dnp)-OH at concentrations of 1, 3, and 6 μM to assess cathepsin B endopeptidase and exopeptidase activity, respectively) in the presence of seven concentrations of the inhibitor (0, 20, 40, 60, 80, 100, and 200 μM). […] Formation of fluorescent degradation products was monitored as described above. […]

Data set [4] addresses T3, cathepsin B (exopeptidase activity) (Homo sapiens, UniProt P07858).
T3 construct: made in house; host or cells: E. coli
Kind of data set: Determination of inhibition constants, cathepsin B exopeptidase activity. It is filed as biochemical. The conditions noted are these: substrate Abz-GIVRAK(Dnp)-OH, mixed inhibition. The method, then:
as §3, §4

The test system of the next data set is Colo320 cells. Nature of the data set: MTT cytotoxicity assay, Colo320. Format: cell-based, human. The conditions noted are these: 72 h incubation. The method, then:
as §1
Drug-sensitive Colo205 (ATCC-CCL-222) and ABCB1 (MDR1)-LRP expressing and doxorubicin-resistant Colo320/MDR-LRP (ATCC-CCL-220.1) human colonic adenocarcinoma cell lines were purchased from LGC Promochem (Teddington, U.K.). The cells were cultured in RPMI 1640 medium supplemented with 10% heat-inactivated fetal bovine serum, 2 mM L-glutamine, 1 mM Na-pyruvate, and 10 mM HEPES.
The tested compound was dissolved in DMSO to prepare a 5 mM stock solution, which was diluted in complete culture medium, to study the effect of compounds on cell growth of human colonic adenocarcinoma cell lines. Doxorubicin was used as the positive control. The cells were treated with a trypsin-versene (EDTA) solution. […] Cell growth was determined by measuring the optical density (OD) at 540/630 nm with a Multiscan EX ELISA reader (Thermo Labsystems, Cheshire, WA). […]

The conditions of data set [5]: pH 7.4, 25.0 °C.
Protocol: The concentration of the compound was determined by UV–vis spectrophotometry. For calibration, stock solutions of the compound were used with known concentrations dissolved in 100% DMSO, 75% DMSO, and 50% (v/v) DMSO/buffered aqueous solutions.

T1 sequence (P02768 25-609): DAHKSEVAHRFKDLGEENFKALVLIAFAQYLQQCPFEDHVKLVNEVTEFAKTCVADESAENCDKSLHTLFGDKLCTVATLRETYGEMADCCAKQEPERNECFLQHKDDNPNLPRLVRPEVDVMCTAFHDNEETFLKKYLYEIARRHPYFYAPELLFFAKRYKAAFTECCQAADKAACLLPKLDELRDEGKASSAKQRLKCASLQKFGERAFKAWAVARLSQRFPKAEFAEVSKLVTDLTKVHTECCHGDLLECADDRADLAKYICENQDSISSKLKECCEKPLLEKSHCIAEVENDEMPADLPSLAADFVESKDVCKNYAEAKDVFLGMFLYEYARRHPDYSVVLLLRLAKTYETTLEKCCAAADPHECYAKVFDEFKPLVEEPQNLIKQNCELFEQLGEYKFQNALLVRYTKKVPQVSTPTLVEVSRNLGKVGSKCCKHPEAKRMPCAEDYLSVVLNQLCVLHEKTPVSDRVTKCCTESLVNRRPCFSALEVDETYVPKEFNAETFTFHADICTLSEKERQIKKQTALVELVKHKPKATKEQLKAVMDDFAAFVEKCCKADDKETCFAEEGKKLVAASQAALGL

For orientation: IC50 means the concentration that inhibits the measured activity by half. Higher therefore signals lower potency. In general, Ki refers to the equilibrium dissociation constant of an inhibitor or competing ligand from its target. Turning to `N#Cc1ccccc1.[C-]#[O+].[C-]#[O+].[C-]#[O+].[O-]n1ccccc1=S.[Re+]` [complex 4, fac-[Re(CO)3(pth)(benzonitrile)]], in data set [1], the “unbound complex in low molecular mass fraction” value is approximately 10%. Moreover, the “log KQ quenching constant” value in data set [2] (0–18 μM complex, pH 7.4 (PBS), 25 °C) was found to be 6.3 ± 0.1. The “degree of HSA fluorescence quenching” value in data set [2] (∼4 equivalents of complex, λEX 295 nm, pH 7.4) is approximately 85%. Further, the IC50 was 7.96 ± 0.98 µM with HeLa cells, 5.47 ± 0.17 µM in the data set on CCD-19Lu cells and 10.5 ± 0.85 µM with Colo320 cells. In addition, the “mode of inhibition, cathepsin B endopeptidase activity” value in data set [3] is “uncompetitive”. In addition, the “Ki′ (dissociation of enzyme–substrate–inhibitor complex), endopeptidase activity” value in data set [3] (uncompetitive inhibition) was 17.02 ± 1.59 μM and 17.0 ± 1.6 ^c μM. In addition, the “Ki′ (dissociation of enzyme–substrate–inhibitor complex), exopeptidase activity” value in data set [4] is 67.0 ± 8.3 ^d μM. Also, the Ki in data set [4] (read-out: Ki (dissociation of enzyme–inhibitor complex), exopeptidase activity) was 165 ± 76 µM. Further, the “aqueous solubility S7.4” value in data set [5] was determined as 350 ± 10 µM.
